Target: T1, human PPARα (Homo sapiens, UniProt Q07869)
T1 construct: expressed in transfected cells; host or cells: CHO-K1
T1 sequence (Q07869 239-466 limits assumed): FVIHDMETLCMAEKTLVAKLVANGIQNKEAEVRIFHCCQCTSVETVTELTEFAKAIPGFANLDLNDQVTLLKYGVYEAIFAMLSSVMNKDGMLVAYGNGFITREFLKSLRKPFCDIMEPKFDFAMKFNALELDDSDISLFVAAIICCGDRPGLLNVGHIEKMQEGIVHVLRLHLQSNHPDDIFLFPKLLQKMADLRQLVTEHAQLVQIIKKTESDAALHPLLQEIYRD
Assay: Activation of human PPARα: GAL4-PPARα LBD luciferase reporter transactivation in CHO-K1 cells
Format: cell-based
Settings: CHO-K1 cells co-transfected with GAL4 DNA-binding domain/human PPARα ligand-binding domain fusion, firefly luciferase reporter normalized to Renilla; 20 hours with test compound
From the text: Activation of Human Peroxisome Proliferator-Activated Receptor α (PPARα)
CHO-K1 cells cultured in Ham's F12 medium supplemented with 10% fetal calf serum (FCS) were co-transfected with a receptor-expression plasmid engineered to express a fusion protein in which the DNA-binding domain of yeast transcription factor GAL4 is fused to the ligand-binding domain of human PPARα (Biochemistry, 1993, 32, 5598), a reporter plasmid (firefly luciferase reporter plasmid, STRATAGENE) and a Renilla luciferase reporter plasmid as an internal control. The plasmids were co-transfected for 2 hours in serum-free medium using Lipofectamine (Invitrogen). Subsequently, the cells were cultured at 37° C. for 20 hours in Ham's F12 medium supplemented with 10% defatted bovine serum and a test compound. The activity of the two luciferases was then measured and firefly luciferase activity was normalized to the internal control Renilla luciferase activity.

Compound | EC50 [µM]
Cc1nc(-c2ccc(Cl)cc2)sc1C(=O)NCC1CCCN(c2ccccc2CC(=O)O)C1 (stereo not shown) [Example 8, 2-[3-[[2-(4-chlorophenyl)-4-methylthiazol-5-yl]carbonylaminomethyl]piperidin-1-yl]phenylacetic Acid] | 0.0001
Cc1nc(-c2ccc(Cl)cc2)sc1C(=O)NCC1CCCN(c2cccc(CC(=O)O)c2)C1 (stereo not shown) [Example 9, 3-[3-[[2-(4-chlorophenyl)-4-methylthiazol-5-yl]carbonylaminomethyl]piperidin-1-yl]phenylacetic acid] | 0.045
Cc1nc(-c2ccc(Cl)cc2)sc1C(=O)NC1CCCN(c2cccc(OC(C)(C)C(=O)O)c2)C1 (stereo not shown) [Example 14, 2-[3-[3-[[2-(4-chlorophenyl)-4-methylthiazol-5-yl]carbonylamino]piperidin-1-yl]phenoxy]-2-methylpropionic acid] | 0.067
Cc1nc(-c2ccc(Cl)cc2)sc1C(=O)NC1CCCN(c2cccc(CC(=O)O)c2)C1 (stereo not shown) [Example 11, 3-[3-[[2-(4-chlorophenyl)-4-methylthiazol-5-yl]carbonylamino]piperidin-1-yl]phenylacetic acid] | 0.037
